Patent publication US20230024302A1, “2,3,5-TRISUBSTITUTED PYRAZOLO[1,5-A]PYRIMIDINE COMPOUNDS” (Arcus Biosciences, Inc., priority 2019, published 2023)

Columns and labels:
PI3Kγ (p120γ) = target: T1, PI3Kγ (p120γ) (Homo sapiens, UniProt P48736); test: Inhibition of PI3K kinase activity (ADP Glo), PI3Kγ; conditions: Table 1, p120γ, read-out: biochemical potency (PI3Kγ IC50)
T1 construct: purchased Promega V1761
Procedure: Compounds were evaluated to determine the potency with which they inhibited the kinase activity of the Class I PI3K subunits p110α/p85α (Promega, Cat #V1721), p110β/p85α (Promega, Cat #V1751), p120γ (Promega, Cat #V1761) and p110δ/p85α (Promega, Cat #V1771). Activity was determined as a function of ADP (adenosine diphosphate) generated from ATP consumed during the phosphorylation of Phosphatidylinositol 4,5-bisphosphate (PIP2) (Promega, Cat #V1701) to yield Phosphatidylinositol (3,4,5)-trisphosphate (PIP3). ADP levels in the assay mixture at the end of the reaction were quantitated using ADP Glo (Promega, Cat #V9103) according to the manufacturer's recommended protocol.
Enzyme was prepared for each of the PI3K subunits in 100 mM HEPES, pH 7.4, 100 mM NaCl, 6 mM MgCl2 and 0.05% BSA. p110α/p85α was prepared at 2 nM (2×), p110β/p85α was prepared at 7 nM (2×), p120γ was prepared at 8 nM (2×) and p110δ/p85α was prepared at 2 nM (2×). Five microliters of 2× enzyme dilution of each PI3K subunit were added to a 384-well white Opti-plates pre-dispensed with compound and allowed to incubate for 1 h at rt. A substrate mix containing 0.1 mg/ml (2×) of PIP2 and 50 μM (2×) ATP (Promega, Cat #V915) was prepared in 25 mM HEPES and 0.5 mM EGTA. Reactions were initiated by addition of 5 μl of 2× substrate mix to each well of the plates containing various PI3K isoforms and allowed to proceed for 60 min at rt. Ten microliters of ADP Glo reagent 1 were added to the wells of each plate and allowed to incubate at rt for 45 min according to the manufacturer's directions. Following incubation, 20 μl of ADP Glo reagent 2 was added to each plate and allowed to incubate for an additional 45 min. Luminescent signal, generated by ADP Glo, was quantified by reading on a Perkin Elmer Envision multimode reader. Compound potencies (IC50's) were determined using a standard 4-parameter fit non-linear regression fit.

PI3Kγ = target: T2, PI3Kγ (Homo sapiens, UniProt P48736); test: PI3Kγ cellular assay in THP-1 cells (AKT pS473 AlphaLISA); assay type: cell-based; conditions: Table 1, rhMCP-1 stimulated AKT pS473, read-out: cellular potency (PI3Kγ IC50)
T2 construct: host or cells: THP-1
Procedure: Twenty microliters of serum starved THP-1 cells were added to the compound plate in serum free DMEM at a density of 9×10^6 cells per ml. Final assay conditions comprised 1.8×10^5 THP-1 cells per well with test compounds in 2% DMSO across a concentration range from 4 nM to 30 μM. […] Briefly, 10 μL of 4× lysis buffer was added to cells after stimulation. Following 60 min incubation at rt, 10 μL of cell lysate was transferred to a fresh 384-well Opti-plate to which 5 μL of AlphaLisa acceptor beads and 5 μL of AlphaLisa donor beads had been added. […] PI3Kγ activity was evaluated as a correlate of endogenous AKT phosphorylation levels. Percentage maximum activity in each test well was calculated based on DMSO (100% activity) and positive control treated cell wells (0% activity). The potencies (IC50's) of test compounds were determined using a standard 4-parameter fit non-linear regression fit.

T2 sequence (P48736 whole entry): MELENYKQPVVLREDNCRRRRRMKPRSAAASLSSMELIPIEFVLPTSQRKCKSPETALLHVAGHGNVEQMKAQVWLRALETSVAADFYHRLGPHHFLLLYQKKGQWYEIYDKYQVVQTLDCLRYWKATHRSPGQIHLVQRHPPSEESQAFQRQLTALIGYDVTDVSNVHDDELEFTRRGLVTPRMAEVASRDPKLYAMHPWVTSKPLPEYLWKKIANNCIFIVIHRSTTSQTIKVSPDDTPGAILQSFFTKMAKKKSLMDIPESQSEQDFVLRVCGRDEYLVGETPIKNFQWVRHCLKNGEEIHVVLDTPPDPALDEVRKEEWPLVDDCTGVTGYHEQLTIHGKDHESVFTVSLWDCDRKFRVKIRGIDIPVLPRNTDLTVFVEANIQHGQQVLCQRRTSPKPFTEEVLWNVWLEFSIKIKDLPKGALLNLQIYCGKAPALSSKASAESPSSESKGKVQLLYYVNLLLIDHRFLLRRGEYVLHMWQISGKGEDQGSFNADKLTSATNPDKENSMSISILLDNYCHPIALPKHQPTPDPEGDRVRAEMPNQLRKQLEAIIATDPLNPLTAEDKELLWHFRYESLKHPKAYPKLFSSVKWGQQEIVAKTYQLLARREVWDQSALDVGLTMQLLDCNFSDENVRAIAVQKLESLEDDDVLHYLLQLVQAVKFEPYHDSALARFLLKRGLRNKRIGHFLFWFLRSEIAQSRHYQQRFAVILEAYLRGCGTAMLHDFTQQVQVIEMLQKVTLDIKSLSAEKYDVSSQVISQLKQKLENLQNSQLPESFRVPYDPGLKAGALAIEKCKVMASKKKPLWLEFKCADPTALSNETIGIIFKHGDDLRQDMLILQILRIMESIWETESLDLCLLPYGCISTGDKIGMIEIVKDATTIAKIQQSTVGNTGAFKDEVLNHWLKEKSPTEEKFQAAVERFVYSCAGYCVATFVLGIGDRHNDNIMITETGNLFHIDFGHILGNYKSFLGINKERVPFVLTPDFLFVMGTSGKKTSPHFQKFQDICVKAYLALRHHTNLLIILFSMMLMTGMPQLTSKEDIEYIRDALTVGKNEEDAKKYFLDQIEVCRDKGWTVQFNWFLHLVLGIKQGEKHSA
T1 sequence (P48736 whole entry): as above

| IC50 (PI3Kγ (p120γ)) [nM] | IC50 (PI3Kγ) [nM] | Compound |
| --- | --- | --- |
| < 100 | < 100 | Cc1cc(-c2ccn3nc(N)c(C(=O)N[C@H]4CC[C@@](C)(O)CC4)c3n2)cc2c1C(=O)N([C@@H](C)C1CC1)C2 [Example 2, 2-Amino-5-{2-[(1S)-1-cyclopropylethyl]-7-methyl-1-oxo-2,3-dihydro-1H-isoindol-5-yl}-N-[cis-4-hydroxy-4-methylcyclohexyl]pyrazolo[1,5-a]pyrimidine-3-carboxamide] |
| < 100 | < 100 | Cc1cc(-c2ccn3nc(N)c(C(=O)N[C@H]4CC[C@H](O)C4)c3n2)cc2c1C(=O)N([C@@H](C)C1CC1)C2 [Example 3, 2-Amino-5-{2-[(1S)-1-cyclopropylethyl]-7-methyl-1-oxo-2,3-dihydro-1H-isoindol-5-yl}-N-[(1S,3S)-3-hydroxycyclopentyl]pyrazolo[1,5-a]pyrimidine-3-carboxamide] |
| < 100 | < 100 | Cc1cc(-c2ccn3nc(N)c(C(=O)NC[C@H]4C[C@H](O)C4)c3n2)cc2c1C(=O)N([C@@H](C)C1CC1)C2 [Example 4] |
| < 100 | < 100 | Cc1cc(-c2ccn3nc(N)c(C(=O)N[C@@H]4CC[C@@H](O)C4)c3n2)cc2c1C(=O)N([C@@H](C)C1CC1)C2 [Example 5, 2-Amino-5-{2-[(1S)-1-cyclopropylethyl]-7-methyl-1-oxo-2,3-dihydro-1H-isoindol-5-yl}-N-[(1R,3R)-3-hydroxycyclopentyl]pyrazolo[1,5-a]pyrimidine-3-carboxamide] |
| < 100 | < 100 | Cc1cc(-c2ccn3nc(N)c(C(=O)N[C@H]4C[C@](C)(O)C4)c3n2)cc2c1C(=O)N([C@@H](C)C1CC1)C2 [Example 6, 2-Amino-5-{2-[(1S)-1-cyclopropylethyl]-7-methyl-1-oxo-2,3-dihydro-1H-isoindol-5-yl}-N-[trans-3-hydroxy-3-methylcyclobutyl]pyrazolo[1,5-a]pyrimidine-3-carboxamide] |
| < 100 | < 100 | Cc1cc(-c2ccn3nc(N)c(C(=O)N[C@H]4CC[C@](C)(O)CC4)c3n2)cc2c1C(=O)N([C@@H](C)C1CC1)C2 [Example 7, 2-Amino-5-{2-[(1S)-1-cyclopropylethyl]-7-methyl-1-oxo-2,3-dihydro-1H-isoindol-5-yl}-N-[trans-4-hydroxy-4-methylcyclohexyl]pyrazolo[1,5-a]pyrimidine-3-carboxamide] |
| < 100 | < 100 | Cc1cc(-c2ccn3nc(N)c(C(=O)N[C@@H]4CCC[C@H]4O)c3n2)cc2c1C(=O)N([C@@H](C)C1CC1)C2 [Example 8, 2-Amino-5-{2-[(1S)-1-cyclopropylethyl]-7-methyl-1-oxo-2,3-dihydro-1H-isoindol-5-yl}-N-[(1R,2R)-2-hydroxycyclopentyl]pyrazolo[1,5-a]pyrimidine-3-carboxamide] |
| < 100 | < 100 | Cc1cc(-c2ccn3nc(N)c(C(=O)N[C@H]4CCC[C@@H](O)C4)c3n2)cc2c1C(=O)N([C@@H](C)C1CC1)C2 [Example 9, 2-Amino-5-{2-[(1S)-1-cyclopropylethyl]-7-methyl-1-oxo-2,3-dihydro-1H-isoindol-5-yl}-N-[(1S,3R)-3-hydroxycyclohexyl]pyrazolo[1,5-a]pyrimidine-3-carboxamide] |
| < 100 | < 100 | Cc1cc(-c2ccn3nc(N)c(C(=O)N[C@H]4CNC(=O)C4)c3n2)cc2c1C(=O)N([C@@H](C)C1CC1)C2 [Example 10, 2-Amino-5-{2-[(1S)-1-cyclopropylethyl]-7-methyl-1-oxo-2,3-dihydro-1H-isoindol-5-yl}-N-[(3R)-5-oxopyrrolidin-3-yl]pyrazolo[1,5-a]pyrimidine-3-carboxamide] |
| < 100 | < 100 | Cc1cc(-c2ccn3nc(N)c(C(=O)N[C@@H]4CCC[C@@H](O)C4)c3n2)cc2c1C(=O)N([C@@H](C)C1CC1)C2 [Example 11, 2-Amino-5-{2-[(1S)-1-cyclopropylethyl]-7-methyl-1-oxo-2,3-dihydro-1H-isoindol-5-yl}-N-[(1R,3R)-3-hydroxycyclohexyl]pyrazolo[1,5-a]pyrimidine-3-carboxamide] |
| < 100 | < 100 | Cc1cc(-c2ccn3nc(N)c(C(=O)N[C@H]4C[C@H](CO)C4)c3n2)cc2c1C(=O)N([C@@H](C)C1CC1)C2 [Example 12, 2-Amino-5-{2-[(1S)-1-cyclopropylethyl]-7-methyl-1-oxo-2,3-dihydro-1H-isoindol-5-yl}-N-[trans-3-(hydroxymethyl)cyclobutyl]pyrazolo[1,5-a]pyrimidine-3-carboxamide] |
| < 100 | < 100 | Cc1cc(-c2ccn3nc(N)c(C(=O)N[C@]4(C)C[C@@H](O)C4)c3n2)cc2c1C(=O)N([C@@H](C)C1CC1)C2 [Example 13, 2-Amino-5-{2-[(1S)-1-cyclopropylethyl]-7-methyl-1-oxo-2,3-dihydro-1H-isoindol-5-yl}-N-[trans-3-hydroxy-1-methylcyclobutyl]pyrazolo[1,5-a]pyrimidine-3-carboxamide] |
| < 100 | < 100 | Cc1cc(-c2ccn3nc(N)c(C(=O)N[C@H]4C[C@H](C(C)(C)O)C4)c3n2)cc2c1C(=O)N([C@@H](C)C1CC1)C2 [Example 14, 2-Amino-5-{2-[(1S)-1-cyclopropylethyl]-7-methyl-1-oxo-2,3-dihydro-1H-isoindol-5-yl}-N-[trans-3-(2-hydroxypropan-2-yl)cyclobutyl]pyrazolo[1,5-a]pyrimidine-3-carboxamide] |
| < 100 | < 100 | Cc1cc(-c2ccn3nc(N)c(C(=O)Nc4cccc(C(=O)O)c4)c3n2)cc2c1C(=O)N([C@@H](C)C1CC1)C2 [Example 15, m-[(5-{2-[(S)-1-Cyclopropylethyl]-7-methyl-5-isoindolinoyl}-2-amino-1,4,7a-triaza-3-indenyl)carbonylamino]benzoic acid] |
| < 100 | < 100 | Cc1cc(-c2ccn3nc(N)c(C(=O)Nc4cnn(CCO)c4)c3n2)cc2c1C(=O)N([C@@H](C)C1CC1)C2 [Example 16, 2-Amino-5-{2-[(1S)-1-cyclopropylethyl]-7-methyl-1-oxo-2,3-dihydro-1H-isoindol-5-yl}-N-[1-(2-hydroxyethyl)-1H-pyrazol-4-yl]pyrazolo[1,5-a]pyrimidine-3-carboxamide] |
| < 100 | < 100 | Cc1cc(-c2ccn3nc(N)c(C(=O)Nc4cnn(CC(C)(C)O)c4)c3n2)cc2c1C(=O)N([C@@H](C)C1CC1)C2 [Example 17, 2-Amino-5-{2-[(1S)-1-cyclopropylethyl]-7-methyl-1-oxo-2,3-dihydro-1H-isoindol-5-yl}-N-[1-(2-hydroxy-2-methylpropyl)-1H-pyrazol-4-yl]pyrazolo[1,5-a]pyrimidine-3-carboxamide] |
| < 100 | < 100 | Cc1cc(-c2ccn3nc(N)c(C(=O)Nc4cnn(C)c4)c3n2)cc2c1C(=O)N([C@@H](C)C1CC1)C2 [Example 18, 2-Amino-5-{2-[(1S)-1-cyclopropylethyl]-7-methyl-1-oxo-2,3-dihydro-1H-isoindol-5-yl}-N-(1-methyl-1H-pyrazol-4-yl)pyrazolo[1,5-a]pyrimidine-3-carboxamide] |
| < 100 | < 100 | Cc1cc(-c2ccn3nc(N)c(C(=O)Nc4cnn(C)c4C)c3n2)cc2c1C(=O)N([C@@H](C)C1CC1)C2 [Example 19, 2-Amino-5-{2-[(1S)-1-cyclopropylethyl]-7-methyl-1-oxo-2,3-dihydro-1H-isoindol-5-yl}-N-(1,5-dimethyl-1H-pyrazol-4-yl)pyrazolo[1,5-a]pyrimidine-3-carboxamide] |
| < 100 | < 100 | C[C@@H](C1CC1)N1Cc2cc(-c3ccn4nc(N)c(C(=O)NC5CC5)c4n3)cc(OC(F)(F)F)c2C1=O [Example 20, 2-Amino-N-cyclopropyl-5-{2-[(1S)-1-cyclopropylethyl]-1-oxo-7-(trifluoromethoxy)-2,3-dihydro-1H-isoindol-5-yl}pyrazolo[1,5-a]pyrimidine-3-carboxamide] |
